Measured values: the supplement of paper PMC13380429

Experiments:
Conditions in all cases: 72 h
[1] = tested on: Caco-2; assay: cell viability relative to DMSO; higher = less toxic
[2] = tested on: Calu-3; assay: as above
[3] = tested on: HepG2; assay: as above
[4] = tested on: U2OS; assay: as above
[5] = tested on: Vero E6; assay: as above
[6] = tested on: Caco-2; assay: relative viability EC50 (midpoint between 100% and the lowest measured viability); higher = less toxic
[7] = tested on: Calu-3; assay: as above
[8] = tested on: U2OS; assay: as above
[9] = tested on: Vero E6; assay: as above
[10] = tested on: Caco-2; assay: drug sensitivity score (DSS) for viability; higher = more toxic; extreme values may be limits of the assay
[11] = tested on: Calu-3; assay: as above
[12] = tested on: HepG2; assay: as above
[13] = tested on: U2OS; assay: as above
[14] = tested on: Vero E6; assay: as above
[15] = tested on: HepG2; assay: relative viability EC50 (midpoint between 100% and the lowest measured viability); higher = less toxic

| SMILES | cell viability ([1]; 1 nM) [%] | cell viability ([1]; 10 nM) [%] | cell viability ([1]; 100 nM) [%] | cell viability ([1]; 1000 nM) [%] | cell viability ([1]; 10000 nM) [%] | cell viability ([2]; 1 nM) [%] | cell viability ([2]; 10 nM) [%] | cell viability ([2]; 100 nM) [%] | cell viability ([2]; 1000 nM) [%] | cell viability ([2]; 10000 nM) [%] | cell viability ([3]; 1 nM) [%] | cell viability ([3]; 10 nM) [%] | cell viability ([3]; 100 nM) [%] | cell viability ([3]; 1000 nM) [%] | cell viability ([3]; 10000 nM) [%] | cell viability ([4]; 1 nM) [%] | cell viability ([4]; 10 nM) [%] | cell viability ([4]; 100 nM) [%] | cell viability ([4]; 1000 nM) [%] | cell viability ([4]; 10000 nM) [%] | cell viability ([5]; 1 nM) [%] | cell viability ([5]; 10 nM) [%] | cell viability ([5]; 100 nM) [%] | cell viability ([5]; 1000 nM) [%] | cell viability ([5]; 10000 nM) [%] | relative viability EC50 [6] [µM] | relative viability EC50 [7] [µM] | relative viability EC50 [8] [µM] | relative viability EC50 [9] [µM] | drug sensitivity score [10] | drug sensitivity score [11] | drug sensitivity score [12] | drug sensitivity score [13] | drug sensitivity score [14] | relative viability EC50 [15] [µM] |
| --- | --- | --- | --- | --- | --- | --- | --- | --- | --- | --- | --- | --- | --- | --- | --- | --- | --- | --- | --- | --- | --- | --- | --- | --- | --- | --- | --- | --- | --- | --- | --- | --- | --- | --- | --- |
| O=C1Nc2ccccc2C2(CCN(CCc3ccc(C(F)(F)F)cc3)CC2)O1 | 93.3 | 97.2 | 94.7 | 99.2 | 78.6 | 99.7 | 98.7 | 102 | 108 | 82.4 | 97.7 | 96.2 | 88.8 | 100 | 58.1 | 100 | 94.9 | 99.8 | 94.7 | 91.2 | 95.6 | 99 | 97.2 | 96.3 | 93.5 | > 10 | > 10 | > 10 | > 10 | 0.8 | 0.2 | 2.1 | 0 | 0 | – |
| Cc1ccc2c(=O)c3cccc(CC(=O)O)c3oc2c1C [ASA-404] | 94.6 | 98.6 | 99 | 96 | 93.3 | 98 | 86.7 | 105 | 99.4 | 102 | – | – | – | – | – | 100 | 97.4 | 101 | 99.7 | 103 | 102 | 106 | 102 | 108 | 97.6 | > 10 | > 10 | > 10 | > 10 | 0 | 0 | – | 0 | 0 | – |
| C#CCN(C)[C@H](C)Cc1ccccc1 [selegiline] | – | – | – | – | – | – | – | – | – | – | – | – | – | – | – | – | – | – | – | – | – | – | – | – | – | – | – | – | – | – | 0 | 0 | 0 | 0 | – |
| COc1ccc(C(=O)c2ccccc2)c(O)c1 [oxybenzone] | 99.6 | 94.4 | 98.9 | 101 | 97.8 | – | – | – | – | – | 112 | 112 | 98.9 | 114 | 103 | 103 | 103 | 101 | 98.2 | 100 | – | – | – | – | – | > 10 | – | > 10 | – | 0 | – | 0 | 0 | – | > 10 |
| CNc1nc(NCc2ccc(NS(C)(=O)=O)cc2Cl)cc(-c2ccccn2)n1 [TC-G-1008] | 93.1 | 105 | 90.4 | 95.1 | 78.5 | 105 | 113 | 98.2 | 90 | 83.7 | 93.9 | 91.2 | 106 | 99.4 | 54.8 | 100 | 108 | 101 | 100 | 79 | 105 | 106 | 98.3 | 101 | 81.5 | > 10 | > 10 | > 10 | > 10 | 0.9 | 0.9 | 2.4 | 0.6 | 0.4 | – |
| Cc1ccc(S(=O)(=O)NC(=O)NN2CCCCCC2)cc1 [tolazamide] | 95.6 | 95 | 102 | 93.8 | 89.7 | 92.2 | 96.2 | 88 | 79.5 | 93.3 | – | – | – | – | – | 100 | 97 | 97 | 99.2 | 103 | 98.9 | 86.3 | 95.5 | 98.3 | 107 | > 10 | > 10 | > 10 | > 10 | 0 | 0 | – | 0 | 0 | – |
| C[N+](C)(C)CCCCCC[N+](C)(C)C [hexamethonium] | 97.3 | 104 | 98.2 | 99.4 | 100 | 86.3 | 97.1 | 101 | 108 | 103 | 109 | 96.7 | 97.6 | 95.3 | 96.6 | 100 | 102 | 96.2 | 103 | 99.8 | – | – | – | – | – | > 10 | > 10 | > 10 | – | 0 | 0 | 0 | 0 | – | > 10 |
| C[C@]12CC[C@H](O)C[C@H]1CC[C@@H]1[C@@H]2CC[C@]2(C)[C@@H](c3ccc(=O)oc3)C[C@H]3O[C@]132 [resibufogenin] | 96.3 | 98.8 | 106 | 94.7 | 25.1 | 102 | 94.8 | 106 | 99.4 | 45.7 | 115 | 100 | 109 | 90.5 | 63.6 | 97 | 104 | 98.9 | 101 | 6.5 | 106 | 101 | 102 | 11.3 | 2.1 | 2.59 | 3.09 | 3.23 | 0.426 | 4.9 | 3 | 3.2 | 5.1 | 16 | – |
| O=C(NN1C(=O)[C@@H]2[C@@H]3C=C[C@@H]([C@H]4C[C@@H]34)[C@@H]2C1=O)c1ccc(C(F)(F)F)cc1 [tecovirimat] | 109 | 104 | 105 | 101 | 94.2 | 99.7 | 90.3 | 103 | 98.8 | 100 | – | – | – | – | – | 107 | 107 | 107 | 99.6 | 104 | 98.5 | 104 | 93 | 95.3 | 101 | > 10 | > 10 | > 10 | > 10 | 0 | 0 | – | 0 | 0 | – |
